Series [1] concerns the target Acetylcholinesterase (Electrophorus electricus, UniProt O42275). Kind of series: Inhibition of Electric eel AChE using acetylthiocholine iodide as substrate pre-incubated for 10 mins followed by substrate addition and measured after 15 mins by DTNB reagent based Ellman's method. Background: Ellman's reagent forms a yellow product with free thiols.
Series [2] has as its target Prostaglandin G/H synthase 1 (Homo sapiens, UniProt P23219).
In series [3] the target is T1, Prostaglandin G/H synthase 2 (Homo sapiens, UniProt P35354).
T1 sequence (P35354 whole entry): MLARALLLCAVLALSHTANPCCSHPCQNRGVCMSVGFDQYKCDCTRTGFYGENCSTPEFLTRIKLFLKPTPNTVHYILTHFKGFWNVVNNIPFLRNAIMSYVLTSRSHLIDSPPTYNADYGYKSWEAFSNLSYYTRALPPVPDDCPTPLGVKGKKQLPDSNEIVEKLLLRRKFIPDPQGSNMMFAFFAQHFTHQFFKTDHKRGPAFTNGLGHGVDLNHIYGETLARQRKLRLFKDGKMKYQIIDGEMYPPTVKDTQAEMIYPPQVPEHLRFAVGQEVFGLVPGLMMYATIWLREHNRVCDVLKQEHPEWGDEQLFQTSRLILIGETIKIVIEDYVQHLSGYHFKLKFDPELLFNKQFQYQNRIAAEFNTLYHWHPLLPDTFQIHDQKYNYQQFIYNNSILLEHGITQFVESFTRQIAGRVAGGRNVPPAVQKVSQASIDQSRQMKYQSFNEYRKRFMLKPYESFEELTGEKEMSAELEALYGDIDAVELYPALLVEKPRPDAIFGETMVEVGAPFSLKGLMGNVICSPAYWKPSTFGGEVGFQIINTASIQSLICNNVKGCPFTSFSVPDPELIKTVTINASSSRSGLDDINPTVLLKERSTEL
Description: Inhibition of COX-2 (unknown origin) using arachidonic acid as substrate and in presence of TMPD preincubated for 5 mins followed by substrate addition and measured after 5 mins by UV visible spectrophotometric analysis

The next series has as its target Beta-secretase 1 (Homo sapiens, UniProt P56817). Kind of series: Inhibition of BACE-1 (unknown origin) 667-676- (2, 4-dinitrophenyl) Lys-Arg-Arg amide trifluoroacetate as substrate preincubated for 15 mins followed by substrate addition and measured after 2 hrs by fluorescence spectrometric analysis.
Series [4] has as its target T2, Amine oxidase [flavin-containing] A (Homo sapiens, UniProt P21397).
T2 sequence (P21397 whole entry): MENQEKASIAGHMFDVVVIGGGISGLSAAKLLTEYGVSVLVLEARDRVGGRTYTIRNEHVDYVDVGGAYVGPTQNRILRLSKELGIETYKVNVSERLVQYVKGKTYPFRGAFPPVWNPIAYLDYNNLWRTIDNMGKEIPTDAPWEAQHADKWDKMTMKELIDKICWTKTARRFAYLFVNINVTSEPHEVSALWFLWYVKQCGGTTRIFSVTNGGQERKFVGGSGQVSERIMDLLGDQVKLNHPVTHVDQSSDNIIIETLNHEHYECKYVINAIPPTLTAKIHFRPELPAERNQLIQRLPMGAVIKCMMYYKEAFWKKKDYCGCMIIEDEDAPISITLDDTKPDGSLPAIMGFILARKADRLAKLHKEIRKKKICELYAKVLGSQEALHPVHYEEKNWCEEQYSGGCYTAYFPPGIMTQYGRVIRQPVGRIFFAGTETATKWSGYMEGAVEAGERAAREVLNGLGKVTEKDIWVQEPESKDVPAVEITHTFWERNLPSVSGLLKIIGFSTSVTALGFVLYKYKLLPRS
As to the kind of experiment: Inhibition of human MAO-A using tyramine/benzylamine as substrate measured after 30 mins by fluorometric assay.

In series [5] the target is T3, Polyunsaturated fatty acid 5-lipoxygenase (Homo sapiens, UniProt P09917).
T3 sequence (P09917 whole entry): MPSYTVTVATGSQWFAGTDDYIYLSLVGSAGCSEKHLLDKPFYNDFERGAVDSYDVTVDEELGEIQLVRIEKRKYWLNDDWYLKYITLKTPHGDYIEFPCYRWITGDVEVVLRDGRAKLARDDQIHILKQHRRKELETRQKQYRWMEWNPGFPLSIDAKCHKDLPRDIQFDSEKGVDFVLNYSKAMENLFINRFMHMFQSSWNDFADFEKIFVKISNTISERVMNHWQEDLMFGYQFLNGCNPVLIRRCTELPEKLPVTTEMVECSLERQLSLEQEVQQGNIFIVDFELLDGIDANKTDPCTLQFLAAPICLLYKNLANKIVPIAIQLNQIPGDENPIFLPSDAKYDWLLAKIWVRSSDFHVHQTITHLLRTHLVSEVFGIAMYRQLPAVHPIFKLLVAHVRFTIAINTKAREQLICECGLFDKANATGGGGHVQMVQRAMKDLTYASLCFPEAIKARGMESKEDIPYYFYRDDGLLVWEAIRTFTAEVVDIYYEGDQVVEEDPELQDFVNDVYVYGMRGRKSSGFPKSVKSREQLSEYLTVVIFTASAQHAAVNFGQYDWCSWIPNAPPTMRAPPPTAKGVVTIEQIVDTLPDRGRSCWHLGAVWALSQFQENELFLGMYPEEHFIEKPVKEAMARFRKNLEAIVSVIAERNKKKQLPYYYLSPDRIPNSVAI
Kind of series: Inhibition of 5-LOX (unknown origin) using linoleic acid as substrate incubated for 5 mins followed by substrate addition.

In series [6] the target is T4, Amine oxidase [flavin-containing] B (Homo sapiens, UniProt P27338).
T4 sequence (P27338 whole entry): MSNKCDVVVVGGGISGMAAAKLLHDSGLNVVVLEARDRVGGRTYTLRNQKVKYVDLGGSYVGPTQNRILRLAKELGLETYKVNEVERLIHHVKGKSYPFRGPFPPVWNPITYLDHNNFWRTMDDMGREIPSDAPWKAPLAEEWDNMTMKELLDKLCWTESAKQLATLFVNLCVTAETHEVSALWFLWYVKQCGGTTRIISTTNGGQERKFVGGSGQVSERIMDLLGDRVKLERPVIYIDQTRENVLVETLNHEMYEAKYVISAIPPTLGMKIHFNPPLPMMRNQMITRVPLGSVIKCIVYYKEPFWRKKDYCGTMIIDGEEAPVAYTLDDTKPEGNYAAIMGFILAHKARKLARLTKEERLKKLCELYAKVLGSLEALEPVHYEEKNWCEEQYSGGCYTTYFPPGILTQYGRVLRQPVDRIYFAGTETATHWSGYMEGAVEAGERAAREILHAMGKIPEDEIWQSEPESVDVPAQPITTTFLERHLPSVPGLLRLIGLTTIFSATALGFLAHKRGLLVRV
As to the kind of experiment: Inhibition of human MAO-B using tyramine/benzylamine as substrate measured after 30 mins by fluorometric assay.

Series [7] addresses T1, Prostaglandin G/H synthase 2. As to the kind of experiment: Inhibition of human COX2 by EIA method.
Series [8] concerns the target Cholinesterase (Equus caballus, UniProt P81908). As to the kind of experiment: Inhibition of equine serum BuChE using butyrylthiocholine iodide as substrate pre-incubated for 10 mins followed by substrate addition and measured after 15 mins by DTNB reagent based Ellman's method.
The next series is described as follows: in vitro. Particulars: PAMPA, pH 7.4. On the technique in general: In PAMPA a lipid-coated filter parts donor from acceptor wells.
A short description of series [9]: Lipophilicity, logP of compound. It is filed as physicochemical. Particulars: octanol/water.
A short description of series [10]: Neurotoxicity against human SH-SY5Y cells assessed as reduction in cell viability upto 50 uM incubated for 24 hrs by MTT assay. It is filed as toxicity, cell-based.
The target of series [11] is Acetylcholinesterase (Homo sapiens, UniProt P22303). Kind of series: Inhibition of AChE (unknown origin) using acetylthiocholine iodide as substrate pre-incubated for 30 mins followed by substrate addition and measured after 30 mins by DTNB reagent based Ellman's method.
Sequence of Acetylcholinesterase (Homo sapiens, UniProt P22303) (P22303 whole entry): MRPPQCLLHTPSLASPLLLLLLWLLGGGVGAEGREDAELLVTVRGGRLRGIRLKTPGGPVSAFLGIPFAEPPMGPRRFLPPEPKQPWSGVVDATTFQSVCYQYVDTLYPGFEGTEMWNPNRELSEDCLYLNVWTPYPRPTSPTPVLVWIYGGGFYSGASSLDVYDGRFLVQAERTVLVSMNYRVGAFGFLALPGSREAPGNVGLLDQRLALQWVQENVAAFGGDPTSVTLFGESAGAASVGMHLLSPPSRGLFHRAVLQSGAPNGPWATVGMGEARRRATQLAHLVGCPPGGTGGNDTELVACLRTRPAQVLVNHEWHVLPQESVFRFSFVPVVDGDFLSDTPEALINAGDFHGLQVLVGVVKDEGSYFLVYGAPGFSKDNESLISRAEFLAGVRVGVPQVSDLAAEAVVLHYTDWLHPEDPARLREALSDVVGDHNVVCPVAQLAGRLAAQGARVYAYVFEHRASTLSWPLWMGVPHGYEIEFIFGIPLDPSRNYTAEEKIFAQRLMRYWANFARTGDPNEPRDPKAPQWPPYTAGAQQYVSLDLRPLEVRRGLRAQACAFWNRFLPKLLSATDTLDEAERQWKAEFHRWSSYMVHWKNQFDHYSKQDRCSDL
Series [12] addresses T4, Amine oxidase [flavin-containing] B. Kind of series: Inhibition of MAO-B (unknown origin).
For series [13], the target named is Cholinesterase (Homo sapiens, UniProt P06276). As to the kind of experiment: Inhibition of BChE (unknown origin).
Sequence of Cholinesterase (Homo sapiens, UniProt P06276) (P06276 whole entry): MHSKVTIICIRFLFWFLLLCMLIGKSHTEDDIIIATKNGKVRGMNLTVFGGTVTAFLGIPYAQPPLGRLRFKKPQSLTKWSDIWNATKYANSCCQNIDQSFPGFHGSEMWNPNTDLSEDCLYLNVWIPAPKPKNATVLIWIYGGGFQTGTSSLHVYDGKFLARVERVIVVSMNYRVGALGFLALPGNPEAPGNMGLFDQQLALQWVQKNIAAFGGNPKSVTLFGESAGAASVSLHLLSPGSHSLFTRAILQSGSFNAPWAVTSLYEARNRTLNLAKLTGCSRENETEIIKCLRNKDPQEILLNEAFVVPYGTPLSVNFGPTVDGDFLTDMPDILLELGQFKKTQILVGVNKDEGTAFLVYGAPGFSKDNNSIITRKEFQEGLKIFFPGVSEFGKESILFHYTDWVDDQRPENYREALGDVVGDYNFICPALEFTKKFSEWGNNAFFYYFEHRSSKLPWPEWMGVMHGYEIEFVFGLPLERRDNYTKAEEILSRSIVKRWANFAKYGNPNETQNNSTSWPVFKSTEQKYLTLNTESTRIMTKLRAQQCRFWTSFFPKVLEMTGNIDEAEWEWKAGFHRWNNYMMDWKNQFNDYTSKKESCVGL
Series [14] has as its target T4, Amine oxidase [flavin-containing] B. Conditions: read-out: INH.
Description: Inhibition of MAO-B (unknown origin) at 100 uM relative to control

As usually defined, the IC50 is the concentration at which inhibition is half-maximal. In general, Papp refers to a coefficient for how fast a substance crosses the barrier. Usually logP stands for the decadic logarithm of the partition coefficient of the neutral form, usually between octanol and water. A lower logP goes with lower lipophilicity.

Sequence of Prostaglandin G/H synthase 1 (P23219 whole entry): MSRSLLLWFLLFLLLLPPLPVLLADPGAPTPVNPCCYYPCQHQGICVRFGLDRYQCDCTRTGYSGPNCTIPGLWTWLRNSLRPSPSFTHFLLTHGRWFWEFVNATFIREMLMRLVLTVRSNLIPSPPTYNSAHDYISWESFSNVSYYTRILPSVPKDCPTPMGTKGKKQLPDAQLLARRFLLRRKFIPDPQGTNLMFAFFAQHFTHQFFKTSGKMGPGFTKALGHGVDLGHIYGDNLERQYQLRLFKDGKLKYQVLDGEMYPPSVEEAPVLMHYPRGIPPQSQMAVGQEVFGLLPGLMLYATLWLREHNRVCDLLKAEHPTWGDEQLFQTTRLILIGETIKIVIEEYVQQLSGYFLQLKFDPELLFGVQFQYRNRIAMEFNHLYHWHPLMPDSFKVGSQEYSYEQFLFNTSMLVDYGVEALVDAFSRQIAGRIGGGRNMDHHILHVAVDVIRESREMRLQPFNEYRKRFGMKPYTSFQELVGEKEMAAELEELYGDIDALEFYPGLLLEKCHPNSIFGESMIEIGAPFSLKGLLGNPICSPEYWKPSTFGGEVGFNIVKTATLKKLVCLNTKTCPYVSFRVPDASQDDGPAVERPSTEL
Sequence of Cholinesterase (Equus caballus, UniProt P81908) (P81908 whole entry): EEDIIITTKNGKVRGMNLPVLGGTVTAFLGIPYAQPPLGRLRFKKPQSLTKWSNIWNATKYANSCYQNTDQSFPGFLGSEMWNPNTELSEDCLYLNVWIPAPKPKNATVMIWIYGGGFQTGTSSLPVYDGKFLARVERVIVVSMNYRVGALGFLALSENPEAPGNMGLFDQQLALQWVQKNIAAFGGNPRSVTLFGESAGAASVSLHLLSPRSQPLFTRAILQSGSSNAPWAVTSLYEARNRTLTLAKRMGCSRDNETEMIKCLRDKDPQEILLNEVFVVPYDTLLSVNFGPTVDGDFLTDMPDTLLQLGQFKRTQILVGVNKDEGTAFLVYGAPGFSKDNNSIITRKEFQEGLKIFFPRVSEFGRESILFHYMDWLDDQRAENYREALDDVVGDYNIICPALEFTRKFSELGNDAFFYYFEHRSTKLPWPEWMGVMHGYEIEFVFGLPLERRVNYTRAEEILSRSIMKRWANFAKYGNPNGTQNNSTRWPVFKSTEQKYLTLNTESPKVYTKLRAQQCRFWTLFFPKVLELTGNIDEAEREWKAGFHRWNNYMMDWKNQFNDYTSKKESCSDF
Sequence of Acetylcholinesterase (Electrophorus electricus, UniProt O42275) (O42275 whole entry): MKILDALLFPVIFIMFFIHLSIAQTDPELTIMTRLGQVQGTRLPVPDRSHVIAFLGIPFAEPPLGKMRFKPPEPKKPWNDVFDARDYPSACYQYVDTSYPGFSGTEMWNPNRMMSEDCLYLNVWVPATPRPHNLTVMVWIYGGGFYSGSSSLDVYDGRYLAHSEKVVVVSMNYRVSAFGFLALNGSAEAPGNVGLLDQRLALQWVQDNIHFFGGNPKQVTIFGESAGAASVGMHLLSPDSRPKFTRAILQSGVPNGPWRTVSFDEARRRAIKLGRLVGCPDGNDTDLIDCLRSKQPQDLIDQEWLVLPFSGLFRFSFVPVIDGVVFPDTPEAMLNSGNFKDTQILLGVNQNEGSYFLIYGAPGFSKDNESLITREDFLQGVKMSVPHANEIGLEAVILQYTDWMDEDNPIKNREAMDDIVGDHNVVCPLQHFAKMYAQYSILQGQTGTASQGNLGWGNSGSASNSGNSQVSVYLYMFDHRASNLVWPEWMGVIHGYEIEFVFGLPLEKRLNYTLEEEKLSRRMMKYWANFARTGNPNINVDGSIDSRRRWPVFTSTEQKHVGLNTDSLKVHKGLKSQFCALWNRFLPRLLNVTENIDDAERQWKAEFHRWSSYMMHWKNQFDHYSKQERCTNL
Sequence of Beta-secretase 1 (P56817 whole entry): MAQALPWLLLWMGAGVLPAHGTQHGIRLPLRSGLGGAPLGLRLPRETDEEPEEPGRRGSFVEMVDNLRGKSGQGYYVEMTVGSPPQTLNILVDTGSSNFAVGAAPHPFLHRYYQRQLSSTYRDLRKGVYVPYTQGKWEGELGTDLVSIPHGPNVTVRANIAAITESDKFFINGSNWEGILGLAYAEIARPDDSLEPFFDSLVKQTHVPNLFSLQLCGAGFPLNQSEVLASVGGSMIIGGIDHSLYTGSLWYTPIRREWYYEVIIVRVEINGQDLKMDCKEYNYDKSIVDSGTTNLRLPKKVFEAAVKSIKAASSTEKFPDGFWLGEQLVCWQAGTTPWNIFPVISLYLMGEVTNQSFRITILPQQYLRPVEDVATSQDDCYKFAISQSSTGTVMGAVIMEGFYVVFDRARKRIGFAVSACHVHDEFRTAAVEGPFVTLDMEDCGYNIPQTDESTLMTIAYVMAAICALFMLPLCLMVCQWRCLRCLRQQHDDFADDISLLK
Description for in vitro: Permeability of compound in PBS at pH 7.4 incubated for 20 hrs by PAMPA-BBB assay

With `O=C(CN1C(=O)S/C(=C\c2ccc(O)cc2)C1=O)Nc1nccs1`, the IC50 was found to be 9.03 µM at Acetylcholinesterase [1] (read-out: IC50) and 51.8 µM in series [2] (read-out: IC50).
`O=C(/C=C/c1ccccc1)Nc1ccc2sc(NCN3C(=O)CSC3=O)nc2c1`: the IC50 was 0.107 µM in [3]; “Not_active” on Beta-secretase 1; 9.07 µM at Acetylcholinesterase [1] (read-out: IC50); 65.4 µM in [4] (read-out: IC50); 0.21 µM in series [5]; 14.7 µM in series [6].
`O=C(CN1C(=O)S/C(=C\c2c[nH]c3ccccc23)C1=O)Nc1nc2ccccc2s1`: the IC50 worked out at 0.91 µM on Beta-secretase 1 (read-out: IC50), 0.45 µM at Acetylcholinesterase [1] (read-out: IC50) and 42.5 µM in [2] (read-out: IC50).
In [7], `CS(=O)(=O)c1ccc(-n2cc(/C=C3/SC(=O)NC3=O)c(-c3ccccc3)n2)cc1` gave an IC50 of 0.48 µM.
For the molecule `O=C1S/C(=C\c2ccccc2)C(=O)N1CNc1nc(-c2cc(Cl)cs2)c(Nc2ccccc2)s1`, the IC50 at Beta-secretase 1 (read-out: IC50) is 0.49 µM; against Acetylcholinesterase [1], “Not_active”; in series [2] it was “Not_active”; at Cholinesterase [8], 0.23 µM.
Consider `O=C(CN1C(=O)S/C(=C\c2ccc(O)cc2)C1=O)Nc1nc2ccccc2s1`, for which the results for the IC50 (on Acetylcholinesterase [1] (read-out: IC50); in [4]) were 2.76 µM and “Not_active”, respectively.
Take `O=C1S/C(=C\c2ccc(O)cc2)C(=O)N1CNc1nc2ccccc2s1`: the IC50 at Acetylcholinesterase [1] (read-out: IC50) was 5.98 µM.
Regarding `C/C=C1\SC(=O)N(CNc2nc(-c3cc(Cl)cs3)c(Nc3ccc(S(N)(=O)=O)cc3)s2)C1=O`, the Papp at 20 h in “in vitro” is 9.1 ×10⁻⁶ cm/s. The IC50 at Beta-secretase 1 (read-out: IC50) was 0.51 µM; against Acetylcholinesterase [1] it was “Not_active”; in series [2] it was “Not_active”; on Cholinesterase [8] it was 0.11 µM. This molecule also displayed a logP in series [9] of 4.86. Moreover, in series [10], the Activity result was “Non-toxic”.
With `O=C1S/C(=C\c2ccc(-c3ccccc3)cc2)C(=O)N1CNc1nc(-c2ccccc2)cs1`, the Papp at 20 h in “in vitro” came out at 14.2 ×10⁻⁶ cm/s. In addition, the IC50 entry against Beta-secretase 1 is “Not_active”; at Acetylcholinesterase [1] (read-out: IC50) it was 0.063 µM. For the same molecule, the logP in series [9] stood at 6.78. Besides, the Activity result in series [10] is on record as “Non-toxic”.
Consider `CCn1cc(C(=O)O)c(=O)c2cc(F)c(N3CCNC(C)C3)c(F)c21` (stereo not given) [LOMEFLOXACIN], for which, in “in vitro”, the Papp at 20 h turned out to be 1.13 ×10⁻⁶ cm/s.
For the molecule `Cc1nnc2n1-c1ccc(Cl)cc1C(c1ccccc1)=NC2` [ALPRAZOLAM], the Papp at 20 h in the series “in vitro” is 5.59 ×10⁻⁶ cm/s.
Regarding `O=C(/C=C/c1ccc(-c2ccccc2)cc1)Nc1nc2ccc(O)cc2s1`, the IC50 on Acetylcholinesterase [11] amounted to 0.071 µM; in [12] it was 0.037 µM.
On to `O=C1S/C(=C\c2c[nH]c3ccccc23)C(=O)N1CNc1nc(-c2ccccc2)cs1`, for which, in the series “in vitro”, the Papp at 20 h is 10.7 ×10⁻⁶ cm/s. Further, the IC50 stood at 0.76 µM at Beta-secretase 1 (read-out: IC50) and 0.052 µM at Acetylcholinesterase [1] (read-out: IC50). The same molecule gave a logP in [9] of 4.65. Further, the Activity entry in series [10] is given as “Non-toxic”.
`O=C(CN1C(=O)S/C(=C\c2c[nH]c3ccccc23)C1=O)Nc1nccs1`: the IC50 at Beta-secretase 1 (read-out: IC50) turned out to be 1.18 µM; at Acetylcholinesterase [1] (read-out: IC50), 0.16 µM.
In the case of `O=C1S/C(=C\c2c[nH]c3ccccc23)C(=O)N1c1csc(Nc2ccccc2)n1`, the IC50 on Beta-secretase 1 (read-out: IC50) is 19.2 µM; on Acetylcholinesterase [1] (read-out: IC50), 0.69 µM; in [2] (read-out: IC50) it was 33.4 µM; against Cholinesterase [8], 17.4 µM.
With `O=C1S/C(=C\c2ccccc2)C(=O)N1c1csc(Nc2ccccc2)n1`, the IC50 was determined as 10.2 µM on Beta-secretase 1 (read-out: IC50), 0.29 µM at Acetylcholinesterase [1] (read-out: IC50), 29.3 µM in series [2] (read-out: IC50) and 7.18 µM on Cholinesterase [8].
Regarding `Cc1ccc2sc(NC(=O)CCN3CCCC3)nc2c1`, the IC50 on Cholinesterase [13] was determined as 15 µM. Further, the inhibition at 100 µM in [14] was found to be 60%.
In the same order, the values of `O=C(CCN1CCCC1)Nc1nc2ccc(Br)cc2s1` are 12 µM and 66%.
`COc1ccc(C2CC(c3ccc(O)cc3)=NN2c2nc3ccc(C)cc3s2)cc1OC` (stereo not given): at Acetylcholinesterase [11], inhibition was half-maximal at 8.69 µM (IC50).

Values taken from ChEMBL document CHEMBL6103588, “Promising thiazolidinedione-thiazole based multi-target and neuroprotective hybrids for Alzheimer's disease: Design, synthesis, in-vitro, in-vivo and in-silico studies” (Eur J Med Chem, 2025).
